From US20240360119A1, “SMALL MOLECULE UREA DERIVATIVES AS STING ANTAGONISTS” (CURADEV PHARMA PVT. LTD., priority 2021, published 2024)

These compounds were tested on STING (IRF pathway reporter in THP1-Dual™ cells, THP-1 (HAQ)) (assay: Reporter gene expression assay in THP-1 cells (THP1-Dual, IRF pathway Lucia luciferase, 2′,3′-cGAMP stimulation)). Conditions: Homo sapiens, 10 min preincubation, 5 μM 2′,3′-cGAMP, 20 hr, IRF pathway luciferase (QUANTI-Luc), IC50 range class.
Format: cell-based, human
Description: THP1-Dual™ cells (Invivogen) were derived from the human THP-1 monocyte cell line by stable integration of two inducible reporter constructs. As a result, THP1-Dual™ cells allow the simultaneous study of the IRF pathway, by assessing the activity of a secreted luciferase (Lucia) and the NF-κB pathway, by monitoring the activity of secreted SEAP. 5×10^4 THP1-Dual™ cells were seeded in 384-well plates in growth medium and preincubated with novel compounds for 10 minutes followed by stimulation with 5 μM 2′,3′-cGAMP. After 20 hr of stimulation the supernatant was removed and the IRF pathway reporter protein was readily measured in the cell culture supernatant using QUANTI-Luc™ (Invivogen), a luciferase detection reagent on a Spectramax i3X luminometer.
In the tables below, IC50 value ranges for exemplary compounds are given. The IC50 ranges are indicated as “A” for values less than or equal to 1 μM, “B” for values greater than 1 μM and less than or equal to 10 μM, and “C” for values greater than 10 μM.
An IC50 of 1 to 10 µM was found for `COCCN(C)C(=O)CC(NC(=O)Nc1ccc2cc[nH]c2c1)c1ccc2c(c1)N(Cc1ccccc1)CCS2` (centres unmarked) [Example 33, 3-(3-(1H-indol-6-yl)ureido)-3-(4-benzyl-3,4-dihydro-2H-benzo[b][1,4]thiazin-6-yl)-N-(2-methoxyethyl)-N-methylpropanamide] in this work.
With `O=C(CC(NC(=O)Nc1ccc2cc[nH]c2c1)c1ccc2c(c1)N(Cc1ccccc1)CCS2)Nc1cccnc1` (centres unmarked) [Example 34, 3-(3-(1H-indol-6-yl)ureido)-3-(4-benzyl-3,4-dihydro-2H-benzo[b][1,4]thiazin-6-yl)-N-(pyridin-3-yl)propanamide] the IC50 was > 10 µM.
An IC50 of 1 to 10 µM was found for `O=C(CC(NC(=O)Nc1ccc2cc[nH]c2c1)c1ccc2c(c1)N(Cc1ccccc1)CCS2)NCCO` (centres unmarked) [Example 35, 3-(3-(1H-indol-6-yl)ureido)-3-(4-benzyl-3,4-dihydro-2H-benzo[b][1,4]thiazin-6-yl)-N-(2-hydroxyethyl)propanamide] in this work.
With `C=CCC(NC(=O)Nc1ccc2cc[nH]c2c1)c1ccc2c(c1)N(Cc1c(F)cccc1Cl)CCS2` (centres unmarked) [Example 36, 1-(1-(4-(2-chloro-6-fluorobenzyl)-3,4-dihydro-2H-benzo[b][1,4]thiazin-6-yl)but-3-en-1-yl)-3-(1H-indol-6-yl)urea] the IC50 was ≤ 1 µM.
An IC50 of 1 to 10 µM was found for `C=CCC(NC(=O)Nc1c[nH]c2ccccc12)c1ccc2c(c1)N(Cc1ccccc1)CCS2` (centres unmarked) [Example 37, 1-(1-(4-benzyl-3,4-dihydro-2H-benzo[b][1,4]thiazin-6-yl)but-3-en-1-yl)-3-(1H-indol-3-yl)urea] in this work.
